46 molecules from the Deep4Chem optical property database can be followed below.

Values joined by “and” are separate entries in the source; they are usually repeats but may differ in a detail not shown here. Equal entries are not always repeated.

A short description of this series: solvent given as SMILES.

Turning to `Cc1cccc2c1nc1c(=O)n(C)c(=O)nc-1n2C`, the absorption maximum (in CC#N) is 440 nm.
For the setting “in ClCCl”, `COc1ccc(C2=Nc3cccc4[n+]3[B-](F)(O2)OC(c2ccc(OC)cc2)=N4)cc1` had an absorption maximum of 399 nm.
The molecule `COc1ccc2cc(/C=C/c3ccc([N+](=O)[O-])cc3)c(=O)oc2c1` registered an absorption maximum (in CC#N) of 392 nm.
The molecule `c1ccc(N(c2ccccc2)c2ccc(-c3nc(-c4ccc(N(c5ccccc5)c5ccccc5)cc4)c4ccccc4n3)cc2)cc1` had an absorption maximum (in ClCCl) of 370 nm.
Where the note is “in CS(C)=O”, `C(/C=C/Nc1cccc2ccccc12)=[NH+]c1cccc2ccccc12` showed an absorption maximum of 391 nm.
For `CN(C)c1cccc2c1C(=O)c1ccccc1C2=O`, the absorption maximum runs as follows: (in C1CCCCC1) 487 nm; (in CC1CCCCC1) 487.5 nm; (in CC#N) 502 nm; (in CCC(C)CC) 487 nm; (in CCCCCC) 487.5 nm; (in CCOC(C)=O) 498 nm.
In turn, `CCOC(=O)CSc1nc2c(c(C#N)c1C#N)CCCC2` showed an absorption maximum (in c1ccccc1) of 364 nm.
Regarding `COCCC1=Cc2nc1ccc1[nH]c(cc1CCOC)c1nc(c(NC(=O)CCCC(=O)O)cc3[nH]c2cc3CCOC)C(CCOC)=C1`, the absorption maximum (in Cc1ccccc1) came out at 645 nm.
`CC(C)(C)NC(=O)c1ccc(Br)c2ccc3c4ccccc4c4ccccc4c3c12` returned an absorption maximum (in ClCCl) of 343 nm.
Molecule `Cc1cc(C)c(C2=C3C=CC=[N+]3[B-]3(c4cccc5ccccc45)Oc4cc(O)cc5c6ccc(C)cc6c6cc2n3c6c45)c(C)c1` (configuration not stated) returned an absorption maximum (in ClC(Cl)Cl) of 646 nm.
Where the note is “in CCO”, `CC(C)Nc1cc2oc3cc(NC(C)C)c(F)cc3c(=O)c2cc1F` registered an absorption maximum of 370 nm.
`Cc1nc(-c2cc(F)ccc2O)n2c1CCCC2` displayed an absorption maximum (in ClCCl) of 326 nm.
As to `CC(C)=CCN1C(=O)c2cccc3c2c(cc2nc(C)oc23)C1=O`, the absorption maximum (in CCO) turned out to be 362 nm.
Molecule `O=c1c2cc(-n3c4ccccc4c4ccccc43)ccc2sc2ccc(-n3c4ccccc4c4ccccc43)cc12` displayed an absorption maximum (in C1CCOC1) of 408 nm; an absorption maximum (in CCCCCC) of 408 nm; an absorption maximum (in Cc1ccccc1) of 408 nm; an absorption maximum (in ClC(Cl)Cl) of 408 nm; an absorption maximum (in ClCCl) of 408 nm.
Consider `CCN(CC)c1ccc2cc(/C=C/C(O)=C3\CC/C(=C\c4cc5ccc(N(CC)CC)cc5oc4=O)C3=O)c(=O)oc2c1`, for which the absorption maximum is, setting by setting: (in C1COCCO1) 513 nm; (in CC#N) 532 nm; (in CC(C)=O) 526 nm; (in CCOC(C)=O) 516 nm; (in CN(C)C=O) 546 nm; (in CS(C)=O) 556 nm. Besides, the absorption maximum reads like this: (in Cc1ccccc1) 511 nm; (in ClC(Cl)Cl) 525 nm.
The molecule `CC(C)(C)c1ccc(Oc2cc3c4c(cc(Oc5ccc(C(C)(C)C)cc5)c5c6c(Oc7ccc(C(C)(C)C)cc7)cc7c8c(cc(Oc9ccc(C(C)(C)C)cc9)c(c2c45)c86)C(=O)N(Cc2ccccc2)C7=O)C(=O)N(Cc2ccccc2)C3=O)cc1` had an absorption maximum (in ClC(Cl)Cl) of 581 nm.
Take `COc1ccc(-c2cc(C)nc(-c3ccc(-n4c5ccccc5c5ccccc54)cc3)n2)cc1`: the absorption maximum reads like this: (in C1CCOC1) 339 nm; (in CN(C)C=O) 340 nm; (in Cc1ccccc1) 341 nm; (in ClC(Cl)Cl) 342 nm.
With `Cc1ccc(C2=[N+]3C(=Cc4ccc(C)n4[B-]3(F)F)c3ccccc32)[nH]1`, the absorption maximum reads like this: (in C1CCOC1) 599 nm; (in CC#N) 592 nm; (in CCCCCC) 602 nm; (in CO) 595 nm; (in Cc1ccccc1) 606 nm; (in ClCCl) 600 nm.
Take `CC1(C)c2ccccc2N(c2ccc3nc4c5ccc(N6c7ccccc7C(C)(C)c7ccccc76)cc5c5cc(N6c7ccccc7C(C)(C)c7ccccc76)ccc5c4nc3c2)c2ccccc21`: the absorption maximum (in Cc1ccccc1) was found to be 456 nm.
On to `Cc1ccc2nc3c4c(c5ccccc5c3nc2c1)OC(=O)CC4c1ccc(C(F)(F)F)cc1` (configuration not stated), for which the absorption maximum (in ClC(Cl)Cl) was found to be 411 nm.
Turning to `CNc1cccc2c1C(=O)c1ccccc1-2`, the absorption maximum stood at 432 nm (in C1CCCCC1), 445 nm (in CC#N), 448 nm (in CCO) and 445 nm (in c1ccccc1).
Regarding `c1ccc(C(=C(c2ccccc2)c2ccc(-c3nc4c(-c5ccc(C(=C(c6ccccc6)c6ccccc6)c6ccccc6)cc5)sc(-c5ccc(C(=C(c6ccccc6)c6ccccc6)c6ccccc6)cc5)c4nc3-c3ccc(C(=C(c4ccccc4)c4ccccc4)c4ccccc4)cc3)cc2)c2ccccc2)cc1`, the absorption maximum is given as 538 nm (in Cc1ccccc1) and 520 nm (in ClCCl).
`c1ccc(-c2csc(-c3ccncc3)n2)cc1`: the absorption maximum came to 370 nm (in CC#N); 325 nm (in CCO); 323 nm (in CN(C)C=O); 325 nm (in CS(C)=O); 376 nm (in ClCCl).
Consider `CC1=C(c2ccc(N(c3ccccc3)c3ccccc3)cc2)C(C)=[N+]2C1=C(c1c(-c3ccccn3)nc3ccccn13)c1c(C)c(-c3ccc(N(c4ccccc4)c4ccccc4)cc3)c(C)n1[B-]2(F)F`, for which, for the setting “in ClCCl”, the absorption maximum came to 568 nm.
As to `CCCCCCN1C(=O)c2cccc3c(-c4ccc(Cl)s4)ccc(c23)C1=O`, for the setting “in ClC(Cl)Cl”, the absorption maximum was 374 nm.
`CCCCN(CCCC)c1ccc(C#Cc2cc(C#Cc3ccc(C(F)(F)F)cc3)c(C#Cc3ccc(C(F)(F)F)cc3)cc2C#Cc2ccc(N(CCCC)CCCC)cc2)cc1` registered an absorption maximum (in ClCCl) of 407 nm.
Take `CCCC1(CCC)c2cc(-c3ccc4c(c3)C(CCC)(CCC)c3cc(-c5ccc6c(c5)C(CCC)(CCC)c5cc(C(C)(C)CC)ccc5-6)ccc3-4)ccc2-c2ccc(-c3ccc4c(c3)C(CCC)(CCC)c3cc(C(C)(C)CC)ccc3-4)cc21`: the absorption maximum (in C1CCCCC1) worked out at 362 nm.
`c1cc2c3c(c1)-c1cccc4ccn(c14)B3n1ccc3cccc-2c31`: the absorption maximum (in C1CCOC1) is 385 nm.
For the molecule `O=C1O[B-]2(OC1=O)OC(c1ccccc1)=CC(c1ccccc1)=[O+]2`, the absorption maximum is, setting by setting: (in CC#N) 384 nm; (in ClC(Cl)(Cl)Cl) 384 nm.
`Cc1cc(=O)oc2cc3c4ccc(C(C)(C)C)cc4c4cc(C(C)(C)C)ccc4c3cc12` gave an absorption maximum (in ClC(Cl)Cl) of 385 nm.
The molecule `CCCCCCCCCCCCN1C(=O)c2ccc3c4ccc5c6c(ccc(c7ccc(c2c37)C1=O)c64)C(=O)NC5=O` gave an absorption maximum (in CN(C)C=O) of 522 nm.
As for `O=C1CCCC2=C1CC1=C(CCCC1=O)N2NC(=O)c1ccc(O)cc1`, the absorption maximum (in CC#N) was found to be 368 nm; the absorption maximum (in CC(C)=O) came to 368 nm; the absorption maximum (in CCCCCO) came to 376 nm; the absorption maximum (in CO) worked out at 376 nm; the absorption maximum (in ClC(Cl)Cl) was 368 nm; the absorption maximum (in ClCCl) was determined as 372 nm.
For `COc1cc(OC)cc(-c2ccc(-c3ccc(C#N)s3)s2)c1`, the absorption maximum is on record as 360 nm (in C1CCCCC1); 366 nm (in C1COCCO1); 364 nm (in CC#N); 365 nm (in CC(C)O); 367 nm (in CCCCO); 365 nm (in CCO). The absorption maximum (in CCOC(C)=O) was found to be 365 nm; the absorption maximum (in CN(C)C=O) was 370 nm; the absorption maximum (in CO) was 364 nm; the absorption maximum (in CS(C)=O) is given as 372 nm; the absorption maximum (in Cc1ccccc1) stood at 366 nm; the absorption maximum (in ClC(Cl)Cl) amounted to 367 nm. Also, the absorption maximum was 366 nm (in ClCCl) and 337 nm (in O).
For `N#Cc1cc2ccccc2oc1=O`, the absorption maximum was found to be 342 nm (in C1CCCCC1); 338 nm (in C1CCOC1); 336 nm (in CC#N); 339 nm (in CCOC(C)=O); 334 nm (in CS(C)=O); 340 nm (in ClC(Cl)Cl).
Turning to `CSc1nc(-c2ccc(-n3c4ccccc4c4ccccc43)cc2)cc(-c2ccc(-n3c4ccccc4c4ccccc43)cc2)n1`, the absorption maximum is reported as 363 nm (in C1CCOC1), 364 nm (in CN(C)C=O), 364 nm (in Cc1ccccc1) and 364 nm (in ClC(Cl)Cl).
In turn, `O=C(O)COc1cccc(-c2c3nc(cc4ccc([nH]4)c(-c4cccc(OCC(=O)O)c4)c4nc(cc5ccc2[nH]5)CC4)C=C3)c1` came in with an absorption maximum (in CS(C)=O) of 644 nm.
With `Cc1cc(=O)c2c(ccc3ccc(O)cc32)o1`, the absorption maximum (in CC#N) stood at 336 nm.
`CCN(CC)c1ccc2c(c1)oc(=O)c1c(=O)oc3c(OC)cccc3c12`: the absorption maximum (in CS(C)=O) stood at 462 nm and the absorption maximum (in ClCCl) came out at 458 nm.
Consider `c1ccc(N(c2ccccc2)c2ccc(-c3nc4ccccc4n3-c3ccccc3)cc2)cc1`, for which, under “in CC#N”, the absorption maximum is 339 nm.
Molecule `O=[N+]([O-])c1ccccc1O` showed an absorption maximum (in CO) of 338 nm and an absorption maximum (in O) of 411 nm.
For the molecule `COc1cccc(-c2nc3sc4ccccc4c3s2)c1`, where the note is “in CS(C)=O”, the absorption maximum turned out to be 350 nm.
For the molecule `c1ccc(C2=C(c3ccccn3)[Si](c3ccccc3)(c3ccccc3)c3ccccc32)cc1`, the absorption maximum (in ClCCl) came to 339 nm.
Consider `CN(C)c1ccc(-c2ccc(-c3nc(C#N)c(C#N)n3C)cc2)cc1`, for which the absorption maximum by setting is: (in C1CCCCC1) 333 nm; (in CC#N) 336 nm; (in CO) 336 nm; (in ClC(Cl)Cl) 348 nm.
`COc1ccc(C(=O)COc2c(C)c(=O)n3c(=O)c(C)c(COC(=O)c4ccccc4Cl)n23)cc1` had an absorption maximum (in CCO) of 382 nm.
Regarding `CC1=CC(C)=[N+]2C1=C(c1ccc(I)cc1)c1c(C)cc(C)n1[B-]2(F)F`, under “in ClC(Cl)Cl”, the absorption maximum stood at 504 nm.
On to `F[B-]1(F)n2c(nc(-c3ccccc3)c2-c2ccccc2)-c2cccc[n+]21`, for which the absorption maximum (in C1CCCCC1) is reported as 429 nm; the absorption maximum (in C1CCOC1) came out at 404 nm; the absorption maximum (in C1COCCO1) is reported as 387 nm; the absorption maximum (in CC#N) is 393 nm and 363 nm; the absorption maximum (in CCCCCC) was 428 nm and 427 nm; the absorption maximum (in CO) stood at 391 nm. For the same molecule, the absorption maximum reads like this: (in ClC(Cl)Cl) 414 nm and 388 nm; (in ClCCl) 408 nm.
